According to EP3623369A1, “NOVEL MORPHOLINYL AMINE COMPOUNDS FOR THE TREATMENT OF AUTOIMMUNE DISEASE” (F. Hoffmann-La Roche AG, priority 2018, dated 2020):

target: T1, hTLR9 (Homo sapiens, UniProt Q9NR96); test: HEK293-Blue-hTLR-9 cells assay (SEAP reporter, ODN2006 stimulation); type: cell-based; conditions: HEK293-Blue-hTLR9 cells, ODN2006, 20 hrs; 0.032 is the lowest tested concentration; read-out: HEK/hTLR9 IC50
T1 sequence (Q9NR96 26-1032): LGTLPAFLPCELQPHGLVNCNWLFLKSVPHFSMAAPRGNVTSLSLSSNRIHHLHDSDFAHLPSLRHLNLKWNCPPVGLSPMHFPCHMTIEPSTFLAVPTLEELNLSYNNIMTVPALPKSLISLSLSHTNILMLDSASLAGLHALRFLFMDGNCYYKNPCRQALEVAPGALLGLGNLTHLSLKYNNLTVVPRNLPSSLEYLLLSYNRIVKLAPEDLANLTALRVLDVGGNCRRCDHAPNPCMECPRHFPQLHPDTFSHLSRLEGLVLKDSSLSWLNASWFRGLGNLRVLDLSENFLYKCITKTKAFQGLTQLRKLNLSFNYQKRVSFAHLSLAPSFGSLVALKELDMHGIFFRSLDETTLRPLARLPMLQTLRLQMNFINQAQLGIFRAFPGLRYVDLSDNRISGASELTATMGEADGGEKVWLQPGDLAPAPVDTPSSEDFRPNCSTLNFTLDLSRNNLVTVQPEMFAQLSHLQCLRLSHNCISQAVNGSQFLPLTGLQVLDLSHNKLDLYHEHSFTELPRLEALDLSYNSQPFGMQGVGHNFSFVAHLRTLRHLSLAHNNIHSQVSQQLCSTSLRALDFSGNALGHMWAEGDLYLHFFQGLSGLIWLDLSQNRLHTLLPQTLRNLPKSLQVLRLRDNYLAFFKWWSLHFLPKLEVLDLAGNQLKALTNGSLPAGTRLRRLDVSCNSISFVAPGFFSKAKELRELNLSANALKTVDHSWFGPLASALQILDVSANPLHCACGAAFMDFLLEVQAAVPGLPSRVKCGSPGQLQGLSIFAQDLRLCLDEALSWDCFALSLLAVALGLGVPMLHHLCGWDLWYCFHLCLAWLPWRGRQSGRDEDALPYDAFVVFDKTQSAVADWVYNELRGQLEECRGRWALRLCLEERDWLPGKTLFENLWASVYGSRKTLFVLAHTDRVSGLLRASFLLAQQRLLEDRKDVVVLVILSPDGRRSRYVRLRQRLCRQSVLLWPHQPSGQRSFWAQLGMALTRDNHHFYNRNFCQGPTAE
Protocol: The following tests were carried out in order to determine the activity of the compounds of formula (I) or (Ia) in HEK293-Blue-hTLR-7/8/9 cells assay.
HEK293-Blue-hTLR-9 cells assay:
A stable HEK293-Blue-hTLR-9 cell line was purchased from InvivoGen (Cat.#: hkb-htlr9, San Diego, California, USA). These cells were originally designed for studying the stimulation of human TLR9 by monitoring the activation of NF-κB. A SEAP (secreted embryonic alkaline phosphatase) reporter gene was placed under the control of the IFN-β minimal promoter fused to five NF-κB and AP-1-binding sites. The SEAP was induced by activating NF-κB and AP-1 via stimulating HEK-Blue hTLR9 cells with TLR9 ligands. Therefore the reporter expression was declined by TLR9 antagonist under the stimulation of a ligand, such as ODN2006 (Cat.#: tlrl-2006-1, Invivogen, San Diego, California, USA), for incubation of 20 hrs. The cell culture supernatant SEAP reporter activity was determined using QUANTI-Blue™ kit (Cat.#: rep-qb1, Invivogen, San Diego, California, USA) at a wavelength of 640 nm, a detection medium that turns purple or blue in the presence of alkaline phosphatase.
HEK293-Blue-hTLR9 cells were incubated at a density of 250,000∼450,000 cells/mL in a volume of 170 µL in a 96-well plate in Dulbecco's Modified Eagle's medium (DMEM) containing 4.5 g/L glucose, 50 U/mL penicillin, […], […], 2 mM L-glutamine, 10% (v/v) heat-inactivated fetal bovine serum with addition of 20 µL test compound in a serial dilution in the presence of final DMSO at 1% and 10 µL of 20uM ODN2006 in above DMEM, perform incubation under 37 °C in a CO2 incubator for 20 hrs. Then 20 µL of the supernatant from each well was incubated with 180 µL Quanti-blue substrate solution at 37 °C for 2 hrs and the absorbance was read at 620∼655 nm using a spectrophotometer. The signalling pathway that TLR9 activation leads to downstream NF-κB activation has been widely accepted, and therefore similar reporter assay was modified for evaluating TLR9 antagonist.

Row | Structure (SMILES) | IC50
1 | C[C@@H]1CN(c2ccc(C#N)n3nccc23)C[C@H](CN2CCc3cnccc3C2)O1 [Example R1, 4-[(2S,6R)-2-(3,4-dihydro-1H-2,6-naphthyridin-2-ylmethyl)-6-methyl-morpholin-4-yl]pyrazolo[1,5-a]pyridine-7-carbonitrile, reference compound] | 50600 nM
2 | C[C@@H]1CN(c2ccc(C#N)c3ncccc23)C[C@H](CN2Cc3cc(N4CCN(C)CC4)cc(F)c3C2)O1 [Example 69, 5-[(2S,6R)-2-[[4-fluoro-6-(4-methylpiperazin-1-yl)isoindolin-2-yl]methyl]-6-methyl-morpholin-4-yl]quinoline-8-carbonitrile] | 81 nM
3 | C[C@@H]1CN(c2ccc(C#N)c3ncccc23)C[C@H](CN2Cc3ccc(N4CCN[C@@H](C)C4)cc3C2)O1 [Example 64, 5-[(2R,6S)-2-methyl-6-[[5-[(3S)-3-methylpiperazin-1-yl]isoindolin-2-yl]methyl]morpholin-4-yl]quinoline-8-carbonitrile] | 75 nM
4 | C[C@@H]1CN(c2ccc(C#N)c3nccnc23)C[C@H](CN2Cc3ccc(N4C5CCC4CNC5)cc3C2)O1 [Example 41, 8-[(2S,6R)-2-[[5-(3,8-diazabicyclo[3.2.1]octan-8-yl)isoindolin-2-yl]methyl]-6-methyl-morpholin-4-yl]quinoxaline-5-carbonitrile] | 227 nM
5 | C[C@@H]1CN(c2ccc(C#N)n3nccc23)C[C@H](CN2Cc3ccncc3C2)O1 [Example R2, 4-[(2S,6R)-2-(1,3-dihydropyrrolo[3,4-c]pyridin-2-ylmethy1)-6-methyl-morpholin-4-yl]pyrazolo[1,5-a]pyridine-7-carbonitrile, reference compound] | 47000 nM
6 | C[C@@H]1CN(c2ccc(C#N)n3nccc23)C[C@H](CN2Cc3ccc(C4CCNC4)cc3C2)O1 (stereo partly drawn) [Example 9, 4-[(2R,6S)-2-methyl-6-[(5-pyrrolidin-3-ylisoindolin-2-yl)methyl]morpholin-4-yl]pyrazolo[1,5-a]pyridine-7-carbonitrile] | 64 nM
7 | COCCN1CCN(c2ccc3c(c2)CN(C[C@H]2CN(c4ccc(C#N)c5nccnc45)C[C@@H](C)O2)C3)CC1 [Example 37, 8-[(2S,6R)-2-[[5-[4-(2-methoxyethyl)piperazin-1-yl]isoindolin-2-yl]methyl]-6-methyl-morpholin-4-yl]quinoxaline-5-carbonitrile] | 260 nM
8 | C[C@@H]1CN(c2ccc(C#N)c3ncccc23)C[C@H](CNCc2ccccc2)O1 [ER-886509, reference compound] | 2080 nM
9 | C[C@@H]1CN(c2ccc(Cl)c3ncccc23)C[C@H](CN2Cc3ccc(N4CCNCC4)cc3C2)O1 [Example 31, (2R,6S)-4-(8-chloro-5-quinolyl)-2-methyl-6-[(5-piperazin-1-ylisoindolin-2-yl)methyl]morpholine] | 168 nM
10 | C[C@@H]1CN(c2ccc(C#N)c3ncccc23)C[C@H](CN2Cc3cc(N4CCNCC4)cc(F)c3C2)O1 [Example 59, 5-[(2S,6R)-2-[(4-fluoro-6-piperazin-1-yl-isoindolin-2-yl)methyl]-6-methyl-morpholin-4-yl]quinoline-8-carbonitrile] | 66 nM
11 | CCOC(=O)C1CNCCN1c1ccc2c(c1)CN(C[C@H]1CN(c3ccc(C#N)c4ncccc34)C[C@@H](C)O1)C2 (stereo partly drawn) [Example 50, Ethyl 1-[2-[[(2S,6R)-4-(8-cyano-5-quinolyl)-6-methyl-morpholin-2-yl]methyl]isoindolin-5-yl] piperazine-2-carboxylate] | 259 nM
12 | C[C@@H]1CN(c2ccc(C#N)c3ncccc23)C[C@H](CN2Cc3ccc(CN4CCCCC4)cc3C2)O1 [Example 74, 5-[(2R,6S)-2-methyl-6-[[5-(1-piperidylmethyl)isoindolin-2-yl]methyl]morpholin-4-yl]quinoline-8-carbonitrile] | 73 nM
13 | C[C@@H]1CN(c2ccc(C#N)c3nccnc23)C[C@H](CN2Cc3ccc(N4CCN[C@@H](C)C4)cc3C2)O1 [Example 66, 8-[(2R,6S)-2-methyl-6-[[5-[(3S)-3-methylpiperazin-1-yl]isoindolin-2-yl]methyl]morpholin-4-yl]quinoxaline-5-carbonitrile] | 83 nM
14 | C[C@@H]1CN(c2ccc(C#N)c3ncsc23)C[C@H](CN2Cc3cc(N4CCNCC4)cnc3C2)O1 [Example 25, 7-[(2R,6S)-2-methyl-6-[(3-piperazin-1-yl-5,7-dihydropyrrolo[3,4-b]pyridin-6-yl)methyl]morpholin-4-yl]-1,3-benzothiazole-4-carbonitrile] | 63 nM
15 | C[C@@H]1CN(c2ccc(C#N)c3ncccc23)C[C@H](CN2CCc3cc(N4CCNCC4)ccc3C2)O1 [Example 19, 5-[(2R,6S)-2-methyl-6-[(6-piperazin-1-yl-3,4-dihydro-1H-isoquinolin-2-yl)methyl]morpholin-4-yl]quinoline-8-carbonitrile] | 64 nM

These reach a lower IC50. Values come first.

Row | IC50 | Structure (SMILES)
16 | 55 nM | C[C@@H]1CN(c2ccc(C#N)c3ncccc23)C[C@H](CN2Cc3ccc(N4CCNCC4)cc3C2)O1 [Example 21, 5-[(2R,6S)-2-methyl-6-[(5-piperazin-1-ylisoindolin-2-yl)methyl]morpholin-4-yl]quinoline-8-carbonitrile]
17 | 46 nM | C[C@@H]1CN(c2ccc(C#N)c3nccnc23)C[C@H](CN2Cc3cnc(N4CCNCC4)cc3C2)O1 [Example 60, 8-[(2R,6S)-2-methyl-6-[(6-piperazin-1-yl-1,3-dihydropyrrolo[3,4-c]pyridin-2-yl)methyl]morpholin-4-yl]quinoxaline-5-carbonitrile]
18 | 60 nM | C[C@@H]1CN(c2ccc(C#N)n3nccc23)C[C@H](CN2CCc3ccc(N4CCNCC4)cc3C2)O1 [Example 11, 4-[(2R,6S)-2-methyl-6-[(7-piperazin-1-yl-3,4-dihydro-1H-isoquinolin-2-yl)methyl]morpholin-4-yl]pyrazolo[1,5-a]pyridine-7-carbonitrile]
19 | 59 nM | C[C@@H]1CN(c2ccc3c(c2)CN(C[C@H]2CN(c4ccc(C#N)c5nccnc45)C[C@@H](C)O2)C3)CCN1 [Example 65, 8-[(2R,6S)-2-methyl-6-[[5-[(3R)-3-methylpiperazin-1-yl]isoindolin-2-yl]methyl]morpholin-4-yl] quinoxaline-5-carbonitrile]
20 | 59 nM | C[C@@H]1CN(c2ccc(C#N)c3ncccc23)C[C@H](CN2Cc3cnc(N4CCNCC4)cc3C2)O1 [Example 61, 5-[(2R,6S)-2-methyl-6-[(6-piperazin-1-yl-1,3-dihydropyrrolo[3,4-c]pyridin-2-yl)methyl]morpholin-4-yl]quinoline-8-carbonitrile]
21 | 56 nM | C[C@@H]1CN(c2ccc(C#N)c3ncccc23)C[C@H](CN2Cc3ccc(N4CCNCC4)nc3C2)O1 [Example 80, 5-[(2R,6S)-2-methyl-6-[(2-piperazin-1-yl-5,7-dihydropyrrolo[3,4-b]pyridin-6-yl)methyl]morpholin-4-yl]quinoline-8-carbonitrile]
22 | 54 nM | C[C@@H]1CN(c2ccc(C#N)c3ncccc23)C[C@H](CN2Cc3ccc(N4CCNC[C@@H]4CO)cc3C2)O1 [Example 82, 5-[(2S,6R)-2-[[5-[(2R)-2-(hydroxymethyl)piperazin-1-yl]isoindolin-2-yl]methyl]-6-methyl-morpholin-4-yl]quinoline-8-carbonitrile]
